The record followed here is patent US6403807B1, “Bridged fluorescent dyes, their preparation and their use in assays” (SurroMed, Inc., priority 1999, dated 2002).

SMILES strings stand for the structures.

Data set [1] in a line: Fluorescence measurements (excitation/emission) of the dyes. The format is physicochemical. Here is the method: (§1) UV-Visible absorption spectra were recorded on Shimadzu UV-2401PC Spectrophotometer, while fluorescence measurements were performed Spex-Fluorlog2 Fluorometer (Instrument S.A. Inc.).
(§2) The spectral properties of the dyes of the previous Examples were measured. […] Other materials absorbed at the […] krypton laser wavelength.

Data set [2] can be described thus: UV-Visible absorption spectra of the dyes. It counts as physicochemical. The procedure:
as §1, §2

Regarding `CC1(C)C2=[N+](CCCCCCCCCCCCN3/C(=C/C=C/C=C/2)C(C)(C)c2ccccc23)c2ccccc21.[Br-]` [Dye 19], the “δem (emission wavelength)” value in data set [1] (CH2Cl2) is 674 nm. Besides, the “δmax (absorption maximum)” value in data set [2] (CH2Cl2) stood at 656 nm.

Regarding `CC1(C)C2=CC3=C(S)/C(=C\C4=[N+](CCCCCC(=O)Nc5cc(cc(C(=O)O)c5)NC(=O)CCCCCN2c2ccc(S(=O)(=O)O)cc21)c1ccc(S(=O)(=O)[O-])cc1C4(C)C)C3=S` [Dye 28, Bridged Thiosquarylium Dye], the “δmax (absorption maximum)” value in data set [2] (solvent not stated) is 649 nm.

As for `CC1(C)C2=[N+](CCCCCCCCCCCCN3/C(=C/C=C/C=C/C=C/2)C(C)(C)c2c3ccc3ccccc23)c2ccc3ccccc3c21` [Dye 25, Dodecanyl Bridged Benzindoleninium Heptamethine Dye], the “δem (emission wavelength)” value in data set [1] (CH2Cl2) is 820 nm. In data set [2] (CH2Cl2), the “δmax (absorption maximum)” value is 800 nm.

With `CC1(C)C2=[N+](CCCCCCCCCCCCN3/C(=C/C4=C([O-])C(=C/2)/C4=O)C(C)(C)c2c3ccc3ccccc23)c2ccc3ccccc3c21` [Dye 24, Dodecanyl Bridged Benzindoleninium Squaraine Dye], the “δem (emission wavelength)” value in data set [1] (CH2Cl2) is given as 681 nm. The “δmax (absorption maximum)” value in data set [2] (CH2Cl2) was 671 nm.

Regarding `CC1(C)C2=[N+](CCCCCCCCCCCCN3/C(=C/C=C/C=C/2)C(C)(C)c2c3ccc3ccccc23)c2ccc3ccccc3c21.[Br-]` [Dye 23, Dodecanyl Bridged Benzindoleninium Pentamethine Cyanine dye], the “δem (emission wavelength)” value in data set [1] (CH2Cl2) is on record as 716 nm. In data set [2] (CH2Cl2), the “δmax (absorption maximum)” value is recorded as 696 nm.

As for `CC1(C)C2=[N+](CCCCCC(=O)Nc3cc(cc(C(=O)O)c3)NC(=O)CCCCCN3/C(=C/C=C/C=C/2)C(C)(C)c2cc(S(=O)(=O)O)ccc23)c2ccc(S(=O)(=O)[O-])cc21` [Dye 16, Bridged Pentamethine Indoleninium Cyanine Dye], in data set [1] (PBS), the “δem (emission wavelength)” value was determined as 674 nm and the “δex (excitation wavelength)” value was found to be 648 nm. Further, in data set [2] (PBS buffer), the “e (extinction coefficient at δmax)” value is given as 250,000 and the “δmax (absorption maximum)” value was 648 nm.

As for `CC1(C)C2=[N+](CCCCCC(=O)Nc3cc(cc(C(=O)O)c3)NC(=O)CCCCCN3/C(=C/C=C/2)C(C)(C)c2cc(S(=O)(=O)[O-])ccc23)c2ccc(S(=O)(=O)O)cc21` [Dye 27, Bridged Trimethine Indolenium Cyanine Dye], the “δmax (absorption maximum)” value in data set [2] (solvent not stated) is on record as 563 nm.

Consider `CC1(C)C2=[N+](CCCCCCCCCCCCN3/C(=C/C4=C([O-])C(=C/2)/C4=O)C(C)(C)c2ccccc23)c2ccccc21` [Dye 20, Dodecanyl Bridged Indoleninium Squaraine Dye], for which the “δmax (absorption maximum)” value in data set [2] (CH2Cl2) is reported as 648 nm.

`CC1(C)C2=[N+](CCCCCCCCCCCCN3/C(=C/C=C/C=C/C=C/2)C(C)(C)c2ccccc23)c2ccccc21.[Br-]` [Dye 21, Dodecanyl Bridged Indoleninium Heptamethine Cyanine Dye]: in data set [1] (CH2Cl2), the “δem (emission wavelength)” value was 790 nm. For the same compound, in data set [2] (CH2Cl2), the “δmax (absorption maximum)” value is on record as 760 nm.

In the case of `CC1(C)C2=[N+](CCCCCC(=O)Nc3cc(cc(C(=O)O)c3)NC(=O)CCCCCN3/C(=C/C=C/C=C/C=C/2)C(C)(C)c2cc(S(=O)(=O)O)ccc23)c2ccc(S(=O)(=O)[O-])cc21` [Dye 17, Bridged Heptamethine Indoleninium Cyanine Dye], in data set [1] (PBS), the “δem (emission wavelength)” value amounted to 780 nm and the “δex (excitation wavelength)” value was determined as 748 nm. The “δmax (absorption maximum)” value in data set [2] (PBS buffer) is listed as 748 nm.
